# According to patent US12240862B2, “Inhibitors of peptidylarginine deiminases” (Gilead Sciences, Inc., priority 2020, dated 2025):
# Target: T1, human PAD4 (Homo sapiens, UniProt Q9UM07)
# T1 construct: human PAD4 (NM_012387), A2P663, was PCR amplified; His-SUMO (N, cleaved yes); made in house; host or cells: E. coli BL21(DE3)
# Test: In vitro PAD4 BAEE biochemical assay
# Details: human PAD4, BAEE substrate; 5 nM PAD4, 2 mM calcium chloride, 3 mM BAEE; geometric mean of multiple experiments
# How it was run: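 Ammonia generated from BAEE serves as the readout, measured by o-phthalaldehyde after EDTA termination. Final conditions: 5 nM human PAD4 (SUMO tag cleaved), 2 mM CaCl2, 3 mM BAEE, pH 7.6 MOPS buffer, 25 °C for 2 h following a 30-min compound preincubation.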
# T1 sequence (Q9UM07 2-663): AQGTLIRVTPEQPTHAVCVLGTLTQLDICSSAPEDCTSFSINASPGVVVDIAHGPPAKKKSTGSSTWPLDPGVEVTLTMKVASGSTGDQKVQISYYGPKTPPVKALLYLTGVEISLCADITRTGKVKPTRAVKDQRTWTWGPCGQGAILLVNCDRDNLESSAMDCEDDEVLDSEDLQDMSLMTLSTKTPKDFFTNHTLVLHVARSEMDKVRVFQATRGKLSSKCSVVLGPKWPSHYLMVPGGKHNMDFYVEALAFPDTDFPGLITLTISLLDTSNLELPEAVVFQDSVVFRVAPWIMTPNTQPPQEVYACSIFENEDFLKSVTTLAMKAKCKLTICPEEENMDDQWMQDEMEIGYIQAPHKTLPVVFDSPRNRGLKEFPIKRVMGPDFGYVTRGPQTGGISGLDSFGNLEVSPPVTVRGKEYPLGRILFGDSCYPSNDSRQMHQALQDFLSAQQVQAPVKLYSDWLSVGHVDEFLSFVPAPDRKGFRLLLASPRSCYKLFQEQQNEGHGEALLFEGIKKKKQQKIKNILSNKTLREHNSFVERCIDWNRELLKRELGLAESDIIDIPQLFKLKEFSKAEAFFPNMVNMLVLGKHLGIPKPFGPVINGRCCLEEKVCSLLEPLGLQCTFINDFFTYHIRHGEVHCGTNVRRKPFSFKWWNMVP
row,SMILES,IC50
1,"COc1cc(C(=O)N2[C@H]3CC[C@@H]2[C@H](N)C3)cc2nc(-c3cc4ccc([C@@H](C)NC(=O)C56CC(C#N)(C5)C6)nc4n3CC3CC3)c(C3CC3)n12 [Example 140, ~{N}-[(1~{R})-1-[2-[7-[(1~{R},2~{R},4~{S})-2-amino-7-azabicyclo[2.2.1]heptane-7-carbonyl]-3-cyclopropyl-5-methoxyimidazo[1,2-a]pyridin-2-yl]-1-(cyclopropylmethyl)pyrrolo[2,3-b]pyridin-6-yl]ethyl]-3-cyanobicyclo[1.1.1]pentane-1-carboxamide]",118 nM
2,"CCc1ccc2cc(-c3nc4cc(C(=O)N5CCCC(NCCO)C5)cc(OC)n4c3C)n(CC3CC3)c2n1 (centres unmarked) [Example 581, [2-[1-(cyclopropylmethyl)-6-ethylpyrrolo[2,3-b]pyridin-2-yl]-5-methoxy-3-methylimidazo[1,2-a]pyridin-7-yl]-[3-(2-hydroxyethylamino)piperidin-1-yl]methanone]",23000 nM
3,"COc1cc(C(=O)N2[C@H]3CC[C@@H]2[C@H](N)C3)cc2nc(-c3cc4ccc(C5CCN(C(=O)N6CCCC6)C5)nc4n3CC3CC3)c(C)n12 (some centres unmarked) [Example 529, [(1~{R},2~{R},4~{S})-2-amino-7-azabicyclo [2.2.1]heptan-7-yl]-[2-[1-(cyclopropylmethyl)-6-[1-(pyrrolidine-1-carbonyl)pyrrolidin-3-yl]pyrrolo [2,3-b]pyridin-2-yl]-5-methoxy-3-methylimidazo [1,2-a]pyridin-7-yl] methanone]",151 nM
4,"COc1cc(C(=O)N2[C@H]3CC[C@@H]2[C@H](N)C3)cc2nc(-c3cc4ccc(N(C5CCC5)S(C)(=O)=O)nc4n3CC3CC3)c(C)n12 [Example 477, ~{N}-[2-[7-[(1~{R}, 2~{R},4~{S})-2-amino-7-azabicyclo[2.2.1]heptane-7-carbonyl]-5-methoxy-3-methylimidazo[1,2-a]pyridin-2-yl]-1-(cyclopropylmethyl)pyrrolo [2,3-b]pyridin-6-yl]-~{N}-cyclobutylmethane-sulfonamide]",100 nM
5,"COc1cc(C(=O)N2[C@H]3CC[C@@H]2[C@H](N)C3)cc2nc(-c3cc4ccc(-c5cccnc5C(F)(F)F)nc4n3CC3CC3)c(C)n12 [Example 551, [(1~{R},2~{R},4~{S})-2-amino-7-azabicyclo [2.2.1]heptan-7-yl]-[2-[1-(cyclopropylmethyl)-6-[2-(trifluoromethyl)pyridin-3-yl]pyrrolo[2,3-b]pyridin-2-yl]-5-methoxy-3-methylimidazo [1,2-a]pyridin-7-yl] methanone]",511 nM
6,"COc1cc(C(=O)N2[C@H]3CC[C@@H]2[C@H](N)C3)cc2nc(-c3cc4ccc(N5C(C)CCCCS5(=O)=O)nc4n3CC3CC3)c(C)n12 (some centres unmarked) [Example 445, [(1~{R},2~{R},4~{S})-2-amino-7-azabicyclo[2.2.1]heptan-7-yl]-[2-[1-(cyclopropylmethyl)-6-(3-methyl-1,1-dioxothiazepan-2-yl)pyrrolo [2,3-b]pyridin-2-yl]-5-methoxy-3-methylimidazo[1,2-a]pyridin-7-yl]methanone]",80.6 nM
7,"COc1cc(C(=O)N2C[C@H]3CC[C@@H]2[C@@H]3N)cc2nc(-c3cc4ccc([C@@H](C)NC(=O)N5CCCC5)nc4n3CC3CC3)c(C)n12 [Example 250, N-((R)-1-(2-(7-((1R,4R,7R)-7-amino-2-azabicyclo[2.2.1]heptane-2-carbonyl)-5-methoxy-3-methylimidazo[1,2-a]pyridin-2-yl)-1-(cyclopropylmethyl)-1H-pyrrolo[2,3-b]pyridin-6-yl)ethyl) pyrrolidine-1-carboxamide]",193 nM

# More lines, in order of falling IC50, values ahead:
row,IC50,SMILES
1,21500 nM,"COc1cc(C(=O)NC2C3CCCNC32)cc2nc(-c3cc4ccc(N(C(F)F)S(C)(=O)=O)nc4n3CC3CC3)c(C)n12 (centres unmarked) [Example 339, ~{N}-(2-azabicyclo[4.1.0]heptan-7-yl)-2-[1-(cyclopropylmethyl)-6-[difluoromethyl (methylsulfonyl)amino]pyrrolo[2,3-b]pyridin-2-yl]-5-methoxy-3-methylimidazo[1,2-a]pyridine-7-carboxamide]"
2,1170 nM,"C[C@H]1CC[C@@H](N)CN1C(=O)c1ccn2c(C(F)F)c(-c3cc4ccc(N(C(F)F)S(C)(=O)=O)nc4n3CC3CC3)nc2c1 [Example 409, ~{N}-[2-[7-[(2~{S},5~{R})-5-amino-2-methylpiperidine-1-carbonyl]-3-(difluoromethyl)imidazo [1,2-a]pyridin-2-yl]-1-(cyclopropylmethyl)pyrrolo [2,3-b]pyridin-6-yl]-~{N}-(difluoromethyl) methanesulfonamide]"
3,499 nM,"[2H]C([2H])([2H])N(c1ccc2cc(-c3nc4cc(C(=O)N5C[C@H]6CC[C@@H]5[C@@H]6N)cc(OC)n4c3C)n(CC)c2n1)S(C)(=O)=O [Example 366, N-[2-[7-[(1R,4R,7R)-7-amino-2-azabicyclo[2.2.1]heptane-2-carbonyl]-5-methoxy-3-methyl-imidazo[1,2-a]pyridin-2-yl]-1-ethyl-pyrrolo [2,3-b]pyridin-6-yl]-N-(trideuteriomethyl) methanesulfonamide]"
4,215 nM,"COc1cc(C(=O)N2CCC[C@@H](N)C2)cc2nc(-c3cc4ccc([C@@H](C)NC(=O)C56CC(F)(C5)C6)nc4n3CC3CC3)c(C3CC3)n12 [Example 145, ~{N}-[(1~{R})-1-[2-[7-[(3~{R})-3-aminopiperidine-1-carbonyl]-3-cyclopropyl-5-methoxyimidazo [1,2-a]pyridin-2-yl]-1-(cyclopropylmethyl)pyrrolo [2,3-b]pyridin-6-yl]ethyl]-3-fluorobicyclo[1.1.1]pentane-1-carboxamide]"
5,181 nM,"COc1cc(C(=O)N2[C@H]3CC[C@@H]2[C@H](N)C3)cc2nc(-c3cc4ccc([C@@H](C)NC(=O)c5ccccn5)nc4n3CC3CC3)c(C)n12 [Example 175, ~{N}-[(1~{R})-1-[2-[7-[(1~{R},2~{R},4~{S})-2-amino-7-azabicyclo[2.2.1]heptane-7-carbonyl]-5-methoxy-3-methylimidazo [1,2-a]pyridin-2-yl]-1-(cyclopropylmethyl)pyrrolo [2,3-b]pyridin-6-yl]ethyl]pyridine-2-carboxamide]"
6,133 nM,"COc1cc(C(=O)N2[C@H]3CC[C@@H]2[C@H](N)C3)cc2nc(-c3cc4ccc([C@@H](C)NC(=O)C56CC(C(F)(F)F)(C5)C6)nc4n3CC3CC3)c(C)n12 [Example 157, ~{N}-[(1~{R})-1-[2-[7-[(1~{R},2~{R},4~{S})-2-amino-7-azabicyclo[2.2.1]heptane-7-carbonyl]-5-methoxy-3-methylimidazo [1,2-a]pyridin-2-yl]-1-(cyclopropylmethyl)pyrrolo [2,3-b]pyridin-6-yl]ethyl]-3-(trifluoromethyl)bicyclo [1.1.1]pentane-1-carboxamide]"
7,75.4 nM,"COc1cc(C(=O)N2[C@H]3CC[C@@H]2[C@H](N)C3)cc2nc(-c3cc4ccc(N(C)S(C)(=O)=O)nc4n3CC3CC3C)c(C)n12 (some centres unmarked) [Example 490, ~{N}-[2-[7-[(1~{R},2~{R}, 4~{S})-2-amino-7-azabicyclo[2.2.1]heptane-7-carbonyl]-5-methoxy-3-methylimidazo[1,2-a]pyridin-2-yl]-1-[(2-methylcyclopropyl)methyl]pyrrolo[2,3-b]pyridin-6-yl]-~{N}-methylmethanesulfonamide]"
